Reference: patent US20120029187A1, “HALOALKYLSULFONANILIDE DERIVATIVE” (Nissan Chemical Industries, Ltd., priority 2009, published 2012)

Columns and labels:
Type in all cases: in vivo
ducksalad [1] = experiment: Test Example 1: herbicidal effects in preemergence treatment under submerged conditions; conditions: dose 2.52 g/a
Outline: (§1)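 Scoring 0 (<5% mortality) to 5 (≥90%) was done three weeks after preemergence application to the water surface of submerged (4 cm) alluvial soil, doses given as g per are. Weeds were seeded and 2.5-leaf rice transplanted on the treatment day; greenhouse at 25–30 °C.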

barnyardgrass [2] = experiment: as above; conditions: dose 2.52 g/a
Outline: as §1

bulrush [3] = experiment: as above; conditions: dose 2.52 g/a
Outline: as §1

water foxtail [4] = experiment: Test Example 4: herbicidal effect in foliage treatment; conditions: dose 3.2 g/a, three weeks after the application
Outline: (§2)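 Weeds and crops sown in sterilized diluvial soil under ~1.5 cm cover and grown in greenhouse at 25 to 30° C. At 14 days, water-diluted emulsifiable concentrate sprayed onto foliage at set doses (g/a); herbicidal effect scored on a rating scale three weeks after application.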

Italian ryegrass [5] = experiment: as above; conditions: dose 3.2 g/a, three weeks after the application
Outline: as §2

velvetleaf [6] = experiment: as above; conditions: dose 3.2 g/a, three weeks after the application
Outline: as §2

redroot pigweed [7] = experiment: as above; conditions: dose 3.2 g/a, three weeks after the application
Outline: as §2

large crabgrass [8] = experiment: as above; conditions: dose 3.2 g/a, three weeks after the application
Outline: as §2

common chickweed [9] = experiment: as above; conditions: dose 3.2 g/a, three weeks after the application
Outline: as §2

common ragweed [10] = experiment: as above; conditions: dose 3.2 g/a, three weeks after the application
Outline: as §2

giant foxtail [11] = experiment: as above; conditions: dose 3.2 g/a, three weeks after the application
Outline: as §2

barnyardgrass [12] = experiment: as above; conditions: dose 3.2 g/a, three weeks after the application
Outline: as §2

common lambsquater [13] = experiment: as above; conditions: dose 3.2 g/a, three weeks after the application
Outline: as §2

wild oat [14] = experiment: as above; conditions: dose 3.2 g/a, three weeks after the application
Outline: as §2

beadstraw [15] = experiment: as above; conditions: dose 3.2 g/a, three weeks after the application
Outline: as §2

posumbu knotweed [16] = experiment: as above; conditions: dose 3.2 g/a, three weeks after the application
Outline: as §2

transplanted rice = experiment: Test Example 1: preemergence treatment under submerged conditions, effect on crop; conditions: dose 2.52 g/a
Outline: as §1

ducksalad [17] = experiment: Test Example 2: herbicidal effects during the vegetation period under submerged conditions; conditions: treatment during the vegetation period under submerged conditions; dose 2.52 g/a
Outline: (§3)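 Barnyardgrass, bulrush and ducksalad were co-sown in alluvial soil flooded to 4 cm and grown in a greenhouse at 25 to 30° C. At the 1- or 2-leaf stage, water-diluted emulsifiable concentrates went onto the water surface at set doses (g/a). Herbicidal effect was scored three weeks later on a graded scale.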

barnyardgrass [18] = experiment: as above; conditions: treatment during the vegetation period under submerged conditions; dose 2.52 g/a
Outline: as §3

bulrush [19] = experiment: as above; conditions: treatment during the vegetation period under submerged conditions; dose 2.52 g/a
Outline: as §3

water foxtail [20] = experiment: Test Example 3: herbicidal effects in soil treatment; conditions: dose 3.2 g/a
Outline: (§4)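 Seeds were sown in sterilized diluvial soil and covered with about 1.5 cm of soil. Compounds, formulated as emulsifiable concentrates and diluted with water, were sprayed evenly over the soil surface at set doses in g/a. Herbicidal effect was scored on a rating scale three weeks later.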

Italian ryegrass [21] = experiment: as above; conditions: dose 3.2 g/a
Outline: as §4

velvetleaf [22] = experiment: as above; conditions: dose 3.2 g/a
Outline: as §4

redroot pigweed [23] = experiment: as above; conditions: dose 3.2 g/a
Outline: as §4

large crabgrass [24] = experiment: as above; conditions: dose 3.2 g/a
Outline: as §4

common chickweed [25] = experiment: as above; conditions: dose 3.2 g/a
Outline: as §4

common ragweed [26] = experiment: as above; conditions: dose 3.2 g/a
Outline: as §4

giant foxtail [27] = experiment: as above; conditions: dose 3.2 g/a
Outline: as §4

barnyardgrass [28] = experiment: as above; conditions: dose 3.2 g/a
Outline: as §4

common lambsquater [29] = experiment: as above; conditions: dose 3.2 g/a
Outline: as §4

wild oat [30] = experiment: as above; conditions: dose 3.2 g/a
Outline: as §4

beadstraw [31] = experiment: as above; conditions: dose 3.2 g/a
Outline: as §4

posumbu knotweed [32] = experiment: as above; conditions: dose 3.2 g/a
Outline: as §4

With `CCOC(=O)N(c1ccccc1CN1OCCCC1=O)S(=O)(=O)C(F)(F)F` [III-13] the “C: ducksalad, herbicidal effect (evaluation scale 0-5)” value (ducksalad [1]) was 5 (mortality of 90% or above (nearly complete death)), the “A: barnyardgrass, herbicidal effect (evaluation scale 0-5)” value (barnyardgrass [2]) was 5 (mortality of 90% or above (nearly complete death)) and the “B: bulrush, herbicidal effect (evaluation scale 0-5)” value (bulrush [3]) was 5 (mortality of 90% or above (nearly complete death)). The “G: water foxtail, herbicidal effect” value (water foxtail [4]) was 5 (mortality of 90% or above (nearly complete death)), the “H: Italian ryegrass, herbicidal effect” value (Italian ryegrass [5]) was 4 (mortality of at least 70% and less than 90%) and the “I: velvetleaf, herbicidal effect” value (velvetleaf [6]) was 5 (mortality of 90% or above (nearly complete death)). The “K: redroot pigweed, herbicidal effect” value (redroot pigweed [7]) was 0 (mortality of less than 5% (almost ineffective)), the “D: large crabgrass, herbicidal effect” value (large crabgrass [8]) was 5 (mortality of 90% or above (nearly complete death)) and the “N: common chickweed, herbicidal effect” value (common chickweed [9]) was 4 (mortality of at least 70% and less than 90%). The “J: common ragweed, herbicidal effect” value (common ragweed [10]) was 4 (mortality of at least 70% and less than 90%), the “E: giant foxtail, herbicidal effect” value (giant foxtail [11]) was 5 (mortality of 90% or above (nearly complete death)) and the “A: barnyardgrass, herbicidal effect” value (barnyardgrass [12]) was 5 (mortality of 90% or above (nearly complete death)). The “L: common lambsquater, herbicidal effect” value (common lambsquater [13]) was 0 (mortality of less than 5% (almost ineffective)), the “F: wild oat, herbicidal effect” value (wild oat [14]) was 0 (mortality of less than 5% (almost ineffective)) and the “O: beadstraw, herbicidal effect” value (beadstraw [15]) was 4 (mortality of at least 70% and less than 90%). The “M: posumbu knotweed, herbicidal effect” value (posumbu knotweed [16]) was 0 (mortality of less than 5% (almost ineffective)), the “a: transplanted rice, effect on crop (evaluation scale 0-5)” value (transplanted rice) was 1 (mortality of at least 5% and less than 20%) and the “C: ducksalad, herbicidal effect (evaluation scale 0-5)” value (ducksalad [17]) was 5 (mortality of 90% or above (nearly complete death)). For the same compound, the “A: barnyardgrass, herbicidal effect (evaluation scale 0-5)” value (barnyardgrass [18]) was 5 (mortality of 90% or above (nearly complete death)), the “B: bulrush, herbicidal effect (evaluation scale 0-5)” value (bulrush [19]) was 5 (mortality of 90% or above (nearly complete death)) and the “herbicidal effect, G: water foxtail” value (water foxtail [20]) was 5 (mortality of 90% or above (nearly complete death)). For the same compound, the “herbicidal effect, H: Italian ryegrass” value (Italian ryegrass [21]) was 5 (mortality of 90% or above (nearly complete death)), the “herbicidal effect, I: velvetleaf” value (velvetleaf [22]) was 5 (mortality of 90% or above (nearly complete death)) and the “herbicidal effect, K: redroot pigweed” value (redroot pigweed [23]) was 3 (mortality of at least 40% and less than 70%). The “herbicidal effect, D: large crabgrass” value (large crabgrass [24]) was 5 (mortality of 90% or above (nearly complete death)), the “herbicidal effect, N: common chickweed” value (common chickweed [25]) was 4 (mortality of at least 70% and less than 90%) and the “herbicidal effect, J: common ragweed” value (common ragweed [26]) was 5 (mortality of 90% or above (nearly complete death)). For the same compound, the “herbicidal effect, E: giant foxtail” value (giant foxtail [27]) was 5 (mortality of 90% or above (nearly complete death)), the “herbicidal effect, A: barnyardgrass” value (barnyardgrass [28]) was 5 (mortality of 90% or above (nearly complete death)) and the “herbicidal effect, L: common lambsquater” value (common lambsquater [29]) was 0 (mortality of less than 5% (almost ineffective)). The “herbicidal effect, F: wild oat” value (wild oat [30]) was 3 (mortality of at least 40% and less than 70%), the “herbicidal effect, O: beadstraw” value (beadstraw [31]) was 0 (mortality of less than 5% (almost ineffective)) and the “herbicidal effect, M: posumbu knotweed” value (posumbu knotweed [32]) was 0 (mortality of less than 5% (almost ineffective)).
